Reference: patent US20230248705A1, “ADMINISTRATION OF MODULATORS OF 5-HT AND / OR AMPA RECEPTORS FOR TREATING NEUROLOGICAL CONDITIONS” (THE ROYAL INSTITUTION FOR THE ADVANCEMENT OF …, priority 2020, published 2023)
Entries after “also recorded” stand apart in the source; their conditions may differ.

Key:
[1] = test system: dopaminergic system; settings: doses 30-120 μg/kg, 60-120 μg/kg; leading to psychotic-like hallucinogenic symptoms; cited from earlier work
[2] = test system: mice; assay: novelty suppressed feeding test after chronic restraint stress; type: in vivo; settings: repeated LSD 30 μg/kg; chronic restraint stress mice vs vehicle-treated stressed mice; FIG. 2B
Description: (§1) A paradigm of repeated stress-induced anxiety-like behavior was employed, in order to mimic anxious states induced by chronic stressor exposure in humans. Chronic restraint stress was chosen for its ability to reliably and relatively quickly induce anxiety-like behavior. Briefly, mice were placed in well ventilated plexiglass restrainers for 2 hours per day, for 15 days, then returned to a horizontal resting position on an open bench. During the procedure, the animals had no access to food and water. Control mice were left undisturbed in their home cage. This regimen duration was chosen given that, in pilot experiments, it represented the minimum duration of restraint stress which exacerbated anxiety-like behavior.
This procedure was used to measure neohypophagia (the anxiety-induced inhibition of feeding upon exposure to a novel environment). This test is used to validate the acute effects of putative anxiolytics. Mice were food-deprived for 48-hours; subsequently, each mouse was placed in a brightly illuminated (100 W, 350 Ix) open arena (40×40 cm, white-painted floor with walls 30 cm high), containing standard chow (3 pellets) in the center of the arena. The latency to initiate feeding (in seconds) was used as an index of anxiety-like behavior. […]

[3] = test system: healthy volunteers; settings: cited from earlier work
[4] = test system: male C57BL/6J mice; assay: direct social interaction test (DSI); type: in vivo
Description: (§2) The increase in social interaction was observed 24 hours after the last injection in two validated paradigms of social behavior: the direct social interaction test (FIG. 1A) and the three-chamber test (FIG. 1B).

[5] = test system: 5-HT neurons originating in the Dorsal Raphe Nucleus (DRN); settings: doses 5-30 μg/kg; mice; cited from earlier work
[6] = test system: mammalian target of rapamycin complex (mTOR); assay: mTOR phosphorylation in the mPFC; type: in vivo, mice
[7] = test system: male C57BL/6J mice; assay: three chambers test (TCT); type: in vivo; settings: repeated LSD 25-35 μg/kg per day for 7 days; vs veh; FIG. 1B
Description: as §2

[8] = test system: mice; assay: light-dark box test after chronic restraint stress; type: in vivo; settings: repeated LSD 30 μg/kg, FIG. 2A
Description: as §1
For the light-dark box test, an apparatus consisting of a light, open topped, opaque, plexiglass box (27×27×30 cm) connected to a dark, closed topped, opaque, plexiglass box (18×27×30 cm) was used. The light and dark boxes were connected by a small opening (12×5 cm) which allowed the mouse to cross between the two compartments. The light box was illuminated by a 100 W desk lamp. Each mouse was placed in the illuminated box and observed for 5 min. When the four paws were in the light box, the mouse was considered to be in the light compartment. […]

[9] = test system: mice; assay: head-twitches after acute dose; settings: FIG. 3
[10] = target: dopamine D2 receptor (Homo sapiens, UniProt P14416); settings: read-out: affinity (ki), partial agonist; cited from earlier work
dopamine D2 receptor, sequence (P14416 whole entry, species assumed): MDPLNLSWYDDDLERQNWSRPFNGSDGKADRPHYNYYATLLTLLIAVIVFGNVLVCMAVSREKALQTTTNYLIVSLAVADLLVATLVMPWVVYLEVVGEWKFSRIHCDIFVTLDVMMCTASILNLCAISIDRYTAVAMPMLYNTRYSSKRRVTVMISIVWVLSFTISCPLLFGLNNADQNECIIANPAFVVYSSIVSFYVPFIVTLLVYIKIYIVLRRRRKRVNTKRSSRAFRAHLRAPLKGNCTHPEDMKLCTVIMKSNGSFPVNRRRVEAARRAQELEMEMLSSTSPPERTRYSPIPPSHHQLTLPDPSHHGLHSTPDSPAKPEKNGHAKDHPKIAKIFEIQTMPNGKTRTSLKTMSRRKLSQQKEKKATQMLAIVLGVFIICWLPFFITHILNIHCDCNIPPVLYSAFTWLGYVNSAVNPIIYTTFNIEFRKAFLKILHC

[11] = test system: glutamatergic and serotonergic neurotransmission in the medial prefrontal cortex (mPFC) and in the DRN; assay: electrophysiological experiments in mPFC and DRN; type: in vivo, mice; settings: repeated regimen of LSD

CCN(CC)C(=O)[C@@H]1C=C2c3cccc4[nH]cc(c34)C[C@H]2N(C)C1 [LSD, Lysergic acid diethylamide]
dopaminergic system activity [1]: inhibit the dopaminergic system
anxiety-like behavior: latency to feed [2]: prevents chronic stress-induced anxiety-like behavior; also recorded: reduced latency to feed; also recorded: decreased latency to feed
optimism, mood and trait openness ([3]; 2 weeks after LSD administration): increased optimism, mood and trait openness
mood and social effects ([3]; after 200 μg of LSD): Positive mood changes and altruistic/positive social effects
social behavior ([3]; healthy volunteers): increase social behavior
social interaction ([4]; lower doses 5, 10 μg/kg for 3 days): non-significant increase in social interaction
social interaction / interaction time toward the unfamiliar mouse ([4]; repeated LSD 25-35 μg/kg per day for 7 days, 24 hours after last injection, vs veh (saline), FIG. 1A): increased social interaction; also recorded: increases interaction time
social behavior ([4]; single administration, FIG. 1A): did not produce any effect on social behavior
activity of 5-HT neurons [5]: decreasing the activity of 5-HT neurons
phosphorylation levels of mTOR [6]: increased the phosphorylation levels
preference for social novelty / sniffing time toward a novel mouse [7]: promoted the preference for the social novelty; also recorded: promotes preference for social novelty
anxiety-like behavior: number of transitions between light and dark compartments [8]: prevents chronic stress-induced anxiety-like behavior; also recorded: number of entries similar to the control mice treated with the vehicle; also recorded: normalized the transition between the dark and the light compartment
hallucinogenic effects (head-twitches) ([9]; acute (single) dose 15 μg/kg or less): did not provide hallucinogenic effects
adverse events (hallucinations, head twitches) ([9]; acute (single) dose 30 μg/kg): produces adverse events
adverse events (hallucinations, head twitches) ([9]; acute (single) dose 60 μg/kg): produces adverse events
head twitches versus dose ([9]; as an acute (single) dose is increased): increase in head twitches
Ki [10]: 25 nM
glutamatergic and serotonergic neurotransmission [11]: potentiates both glutamatergic and serotonergic neurotransmission
